What follows are compounds tested on cellules L 1210 (Leucémie murine) (assay: In vitro cytotoxicity, Microculture Tetrazolium Assay (cell growth inhibition)). Conditions: Mus musculus, L1210, L 1210 cells in RPMI 1640 with 10 % fetal calf serum, read-out: IC₅₀, concentration inhibant à 50 % la croissance cellulaire.
Type: cell-based
Protocol: Les cellules L 1210 (Leucémie murine) sont cultivées dans du RPMI 1640 complémenté avec 10 % de sérum de veau foetal, 2 mM de L-glutamine, 100 unités/ml de pénicilline, 100 µg/ml de streptomycine et 10 mM d'Hepes (pH : 7,4). L'inhibition de la croissance cellulaire est mesurée selon le "Microculture Tetrazolium Assay" décrit par M. ALLEY et coll. (Cancer Res., 48, 589-601, 1988).
Les résultats de ce test sont exprimés en IC₅₀, concentration inhibant à 50 % la croissance cellulaire. Le produit de référence utilisé est le BCNU, agent alkylant très actif utilisé en clinique.

Row | Compound | IC50
1 | O=C1C#Cc2ccccc2C#CCCC1 [exemple 7, 7-Oxo-benzo[c]cyclodéca-1,5-diyne] | 0.5 µM
2 | CC(=O)OC1C#C/C=C\C#CCCC1 (stereo not drawn) [exemple 2, 7-Acétoxy-1,5-diyne-3-cyclodécène] | 5.6 µM
3 | O=NN(CCCl)C(=O)NCCCl [BCNU, reference compound] | 6.4 µM
